Measured values: ChEMBL document CHEMBL3271999, “Antimycotic imidazoles. 2. Synthesis and antimycotic properties of 1-[2-(arylalkyl)-2-phenylethyl]-1H-imidazoles” (1977)
Active and inactive are the calls of the source. No cut-off for these calls is given here.

Legend:
[1] = test system: Sporothrix schenckii; assay: Antifungal activity against Sporothrix schenckii assessed as lowest dose level for total inhibition of fungal growth; type: functional
[2] = test system: Streptococcus pyogenes; assay: Antibacterial activity against Streptococcus pyogenes assessed as lowest dose level for total inhibition of bacterial growth; type: functional
[3] = test system: Candida tropicalis; assay: Antifungal activity against Candida tropicalis assessed as lowest dose level for total inhibition of fungal growth; type: functional
[4] = test system: Staphylococcus haemolyticus; assay: Antibacterial activity against Staphylococcus haemolyticus assessed as lowest dose level for total inhibition of bacterial growth; type: functional
[5] = test system: Saprolegnia; assay: Antifungal activity against Saprolegnia species assessed as lowest dose level for total inhibition of fungal growth; type: functional
[6] = test system: Candida albicans; assay: In vivo antifungal activity against Candida albicans topically infected in guinea pig assessed as animal cured at 10 mg/kg, po; type: functional, organism-based; design: dose 10 mg/kg
[7] = test system: Microsporum canis; assay: Antifungal activity against Microsporum canis assessed as lowest dose level for total inhibition of fungal growth; type: functional
[8] = test system: Trichophyton rubrum; assay: Antifungal activity against Trichophyton rubrum assessed as lowest dose level for total inhibition of fungal growth; type: functional
[9] = test system: Cryptococcus neoformans; assay: Antifungal activity against Cryptococcus neoformans assessed as lowest dose level for total inhibition of fungal growth; type: functional
[10] = test system: Mucor; assay: Antifungal activity against Mucor species assessed as lowest dose level for total inhibition of fungal growth; type: functional
[11] = test system: Trichophyton mentagrophytes; assay: Antifungal activity against Trichophyton mentagrophytes assessed as lowest dose level for total inhibition of fungal growth; type: functional
[12] = test system: Candida albicans; assay: Antifungal activity against Candida albicans assessed as lowest dose level for total inhibition of fungal growth; type: functional
[13] = test system: Aspergillus fumigatus; assay: Antifungal activity against Aspergillus fumigatus assessed as lowest dose level for total inhibition of fungal growth; type: functional
[14] = test system: Phialophora verrucosa; assay: Antifungal activity against Phialophora verrucosa assessed as lowest dose level for total inhibition of fungal growth; type: functional
[15] = test system: Erysipelothrix rhusiopathiae; assay: Antibacterial activity against Erysipelothrix insidiosa assessed as lowest dose level for total inhibition of bacterial growth; type: functional

Row | Compound | Activity [1] [µg/mL] | Activity [2] [µg/mL] | Activity [3] [µg/mL] | Activity [4] [µg/mL] | Activity [5] [µg/mL] | Activity [6] | Activity [7] [µg/mL] | Activity [8] [µg/mL] | Activity [9] [µg/mL] | Activity [10] [µg/mL] | Activity [11] [µg/mL] | Activity [12] [µg/mL] | Activity [13] [µg/mL] | Activity [14] [µg/mL] | Activity [15] [µg/mL]
1 | Clc1ccc(C(Cc2ccc(Br)cc2)Cn2ccnc2)c(Cl)c1.O=[N+]([O-])O (stereo not drawn) | 10 | <1 | 10 | 10 | 100 | inactive | 10 | <1 | <1 | 10 | <1 | 10 | 100 | 10 | <1
2 | Clc1ccc(C(Cc2ccccc2)Cn2ccnc2)c(Cl)c1.O=[N+]([O-])O (stereo not drawn) | 10 | <1 | 10 | 10 | 10 | inactive | 10 | <1 | <1 | 100 | <1 | 100 | 100 | 10 | <1
3 | Clc1ccc(CC(Cn2ccnc2)c2ccc(Cl)cc2Cl)cc1.O=[N+]([O-])O (stereo not drawn) | 10 | <1 | 100 | 10 | <1 | inactive | 10 | <1 | <1 | 100 | <1 | 100 | 100 | 100 | <1
4 | Clc1ccc(CC(Cn2ccnc2)c2c(Cl)cccc2Cl)cc1.O=[N+]([O-])O (stereo not drawn) | 100 | <1 | >100 | 100 | 100 | inactive | <1 | <1 | 100 | >100 | <1 | 100 | 100 | 100 | <1
5 | Cc1ccccc1C(Cc1ccc(Cl)cc1Cl)Cn1ccnc1.O=[N+]([O-])O (stereo not drawn) | 10 | 10 | 100 | 10 | 100 | – | 10 | <1 | 10 | 10 | <1 | 100 | 10 | 100 | 1
6 | Cc1ccccc1C(Cc1ccc(Cl)cc1)Cn1ccnc1.O=[N+]([O-])O (stereo not drawn) | 100 | <1 | >100 | 10 | 100 | – | 10 | 10 | 10 | 100 | <1 | >100 | 100 | 100 | 1
7 | Clc1ccc(CC(Cn2ccnc2)c2ccccc2Br)cc1.O=[N+]([O-])O (stereo not drawn) | 10 | 1 | >100 | 10 | 100 | – | 100 | <1 | <1 | 100 | <1 | 10 | 100 | 100 | <1
8 | Clc1ccccc1C(Cc1c(Cl)cccc1Cl)Cn1ccnc1.O=[N+]([O-])O (stereo not drawn) | 10 | <1 | >100 | 1 | 100 | – | <1 | <1 | 10 | >100 | <1 | 100 | 10 | 100 | 1
9 | Clc1ccc(C(CCc2ccc(Br)cc2)Cn2ccnc2)c(Cl)c1.O=[N+]([O-])O (stereo not drawn) | 10 | <1 | 10 | 10 | 10 | – | 10 | <1 | <1 | >100 | <1 | >100 | 100 | 100 | <1
10 | Clc1ccc(C(Cc2ccccc2Cl)Cn2ccnc2)c(Cl)c1.O=[N+]([O-])O (stereo not drawn) | <1 | <1 | <1 | 10 | 10 | – | 10 | <1 | <1 | 100 | <1 | 100 | 100 | 10 | <1
11 | Clc1ccc(COC(Cn2ccnc2)c2ccc(Cl)cc2Cl)c(Cl)c1 (stereo not drawn) [MICONAZOLE] | 1 | <1 | 100 | 10 | 10 | – | 1 | <1 | 1 | >100 | <1 | 10 | 10 | 100 | <1
12 | Clc1ccc(C(Cc2c(Cl)cccc2Cl)Cn2ccnc2)cc1.O=[N+]([O-])O (stereo not drawn) | 10 | <1 | >100 | 10 | 100 | – | 10 | 10 | <1 | 10 | <1 | >100 | 100 | 100 | <1
13 | Clc1ccc(C(CCc2ccccc2Cl)Cn2ccnc2)c(Cl)c1.O=[N+]([O-])O (stereo not drawn) | <1 | 1 | >100 | 1 | 100 | – | 10 | <1 | <1 | 100 | <1 | 10 | 100 | 100 | <1
14 | Clc1ccc(C(Cc2c(Cl)cccc2Cl)Cn2ccnc2)c(Cl)c1.O=[N+]([O-])O (stereo not drawn) | <1 | 1 | 100 | 100 | 100 | – | 10 | <1 | <1 | 100 | <1 | 100 | 100 | 100 | 1
15 | Cc1ccccc1C(Cc1c(Cl)cccc1Cl)Cn1ccnc1.O=[N+]([O-])O (stereo not drawn) | 100 | <1 | >100 | 10 | 100 | – | 10 | <1 | 100 | 100 | <1 | >100 | 100 | 100 | <1
16 | Clc1ccc(C(Cc2ccc(Cl)cc2Cl)Cn2ccnc2)cc1.O=[N+]([O-])O (stereo not drawn) | 10 | 1 | 100 | 10 | 100 | – | 10 | <1 | <1 | 100 | <1 | 100 | 100 | 100 | <1
